Data from publication PMC4944145, “New paradigms for understanding and step changes in treating active and chronic, persistent apicomplexan infections” (Scientific Reports, 2016).
≈ marks a conversion by molar mass, not a printed value. Entries after “also recorded” stand apart in the source; their conditions may differ. Like-named read-outs stand apart in the source and are kept apart here.

Assays:
[1] = test system: P. falciparum Dd2 parasite lines; experiment: P. falciparum whole-cell SYBR Green EC50, Dd2 and cytochrome b mutant / scDHODH lines; type: cell-based; details: Plasmodium falciparum
Description: We used the following parasite line from the MR4 repository of the American Type Culture Collection (ATCC): Dd2 (MRA-156). Mutant Dd2 parasites harboring a G33A or G33V substitution in cytochrome b were as reported^S77. Dd2 parasites with a G131S mutation in cytochrome b and transgenic lines expressing a chromosomally integrated copy of the S. cerevisiae DHODH were utilized as previously described^S78. Parasites were cultured by standard methods in RPMI media supplemented with 5% human O^+ serum and 0.25% AlbuMAX® II (Life Technologies 11021–045)^S79.
Drug susceptibility was measured using the SYBR Green method^S75. Twelve point curves based on 2-fold dilutions of the test compound were carried out in triplicate each day and replicated on at least three different days. EC50 values were calculated using a nonlinear regression curve fit in Prism 6.0 for Mac (GraphPad Software, Inc.).

[2] = test system: P. falciparum Dd2 parasites; experiment: Isobologram, modified fixed ratio drug combinations; type: cell-based, Plasmodium falciparum; details: for interaction in combination with MJM170: Dd2 parasites, synergy combined FIC < 1.0, additivity FIC = 1.0, antagonism FIC > 1.0; for FIC ATV: MJM170 + ATV; for FIC CYG: MJM170 + CYG
Description: Isobologram experiments were performed in similar fashion utilizing the modified fixed ratio methodology^S76. […] EC50 values were calculated as above, and FICs were calculated for each drug combination as described^S76. Synergy was defined as an FIC < 1.0, additivity as FIC = 1.0, and antagonism as FIC > 1.0.

T. gondii cysts = details: cited from earlier work
[3] = HFF toxicity assay (WST-1); type: cell-based; details: human, HFF cells (confluent monolayer)
Description: Toxicity assays were conducted using WST-1 cell proliferation reagent (Roche) as described^S12–15;S18,19. HFF were grown on a flat, clear-bottomed, black 96-well plate. Confluent HFF were treated with inhibitory compounds at concentrations equal to those being tested in challenge assays. Compounds were diluted in IMDM-C, and 20 μl were added to each designated well, with triplicates for each condition. A gradient of 2 fold-decreasing concentrations of DMSO in clear IMDM-C was used as a control. The plate was incubated for 72 hours at 37 °C. 10 μl of WST-1 reagent (Roche) were added to each well and the cells were incubated for 30 to 60 minutes. Absorbance was read using a fluorometer at 420 nm. A higher degree of color change (and absorbance) indicated mitochondrial activity and cell viability.

[4] = Mouse microsomal stability
[5] = Human microsomal stability
[6] = Aqueous kinetic solubility PBS pH 7.4
[7] = test system: T. gondii bradyzoites (EGS strain); experiment: EGS strain bradyzoite (cyst) assay in HFF; type: cell-based, Toxoplasma gondii
Description: (§1) Vivo-PMO (Vivo porter linked to morpholinos) to knock down cytochrome b and an off-target PPMO (Vivo porter) were utilized at concentrations of 5 and 10 μM as previously described with both cultures of RH-YFP tachyzoites and EGS^S14. Morpholino sequence for cytochrome b/c knockdown is 5′ […] 3′, and for unrelated sequence, off target, is 5′ […]-[…] 3′.
HFF cells were grown in IMDM (1x, [+] glutamine, [+] 25 mM HEPES, [+] Phenol red, 10% FBS, [Gibco, Denmark]) on removable, sterile glass disks in the bottom of a clear, flat-bottomed 24-well plate. Cultures were infected with 3 × 10^4 parasites (EGS strain) per well, in 0.5 mL media and plate was returned to incubator at 37 °C overnight. The following day, the media was removed and clear IMDM and compounds were added to making various concentrations of the drug, to a total volume of 0.5 mL. Two wells were filled with media only, as a control. Plates were returned to the 37 °C incubator for 72 hours.
Efficacy was determined following fixation. Staining was used to determine the numbers of cysts in cultures without and with treatment with the test compounds. Cells were fixed using 4% paraformaldehyde and stained with Fluorescein-labeled Dolichos Biflorus Agglutinin, DAPI, and anti-BAG1, and anti-SAG1. Disks were removed and mounted onto glass slides and visualized using microscopy (Nikon Tl7). Slides were also scanned using a CRi Pannoramic Scan Whole Slide Scanner and viewed using Pannoramic Viewer Software.

[8] = test system: yeast with a mutation in the Qi site; details: cited from earlier work
P. falciparum = P. falciparum in vitro assay (D6, TM91C235, W2, C2B strains); type: cell-based; details: Plasmodium falciparum
Description: D6 is a drug sensitive strain from Sierra Leone, C235 is a multi-drug resistant strain from Thailand, W2 is a chloroquine resistant strain from Thailand, and C2B has resistance to a variety of drugs including atovaquone. These assays were performed as described^S74.

[9] = test system: T. gondii tachyzoites (RH-YFP strain); experiment: T. gondii tachyzoite assay (RH-YFP in HFF, fluorescence); type: cell-based; details: Toxoplasma gondii
Description: as §1
Human foreskin fibroblasts (HFF) were cultured on a flat, clear-bottomed, black 96-well plate to 90% to 100% confluence. IMDM (1x, [+] glutamine, [+] 25 mM HEPES, [+] Phenol red, 10% FBS [gibco, Denmark]) was removed from each well and replaced with IMDM-C(1x, [+] glutamine, [+] 25 mM HEPES, [−] Phenol red, 10% FBS)[Gibco, Denmark]). Type I RH parasites expressing Yellow Fluorescent Protein (RH-YFP) were lysed from host cells by double passage through a 27-gauge needle. Parasites were counted and diluted to 32,000/mL in IMDM-C. Fibroblast cultures were infected with 3200 tachyzoites of the Type I RH-YFP strain and returned to incubator at 37 °C for 1–2 hours to allow for infection ^S12–15;S18,19;S25. […] The plates were read using a fluorimeter (Synergy H4 Hybrid Reader, BioTek) To ascertain the amount of yellow fluorescent protein, in relative fluorescence units (RFU), as a measure of parasite burden after treatment. […] Data was collected using Gen5 software and analyzed with Excel.

[10] = test system: S. cerevisiae wild type parental AD1-9 strain; experiment: S. cerevisiae growth inhibition (disk), wild type; type: cell-based, Saccharomyces cerevisiae; details: glycerol medium, 1mM, 100, 5 and 1 μM
Description: Three S. cerevisiae strains were used: M221Q and M221F cytochrome b mutants and wild type. They share the same nuclear genetic background deriving from AD1–9 (kindly given by M.Ghislain, UCL, Belgium). AD1–9 harbors multiple deletions in the ABC transporter genes that render the strain more sensitive to drugs than standard yeast strains^S65.
Protocol from^S68: Yeast strains were grown over 48 hours at 33 °C in liquid YPG medium [1% yeast extract, 2%(wt/vol) peptone, and 3%(vol/vol) (glycerol). Cultures were diluted to an OD600 of 0.05 and grown for 2 hrs. Cultures were then combined with YPG containing 6% melted agar for a total volume of 15–20 mL and poured onto OmniTray single-well rectangular plates that measured 86 mm by 128 mm (ThermoScientific) . Filter paper disks (7 mm diameter, […]) were placed onto the cooled agar plates. […] A single disk with DMSO on each plate was used as a control. Plates were incubated at 33 °C. Images were obtained after 4 days using GelDoc XR Imaging System (BioRad) and Quantity One software. Drug effect was assessed by the presence and size of a zone of inhibition around the disks.

Work on `C[C@H]1[C@H](OC(=O)CCC(=O)O)O[C@@H]2O[C@@]3(C)CC[C@H]4[C@H](C)CC[C@@H]1[C@@]24OO3` [Artesunate] yielded an EC50 ([1]; DD2, Dd2) of 2.95 ± 0.94 nM, an EC50 ([1]; DD2, Dd2-attB) of 4.4 ± 2.3 nM and an EC50 ([1]; DD2, Dd2-scDHODH) of 3.97 ± 2.3 nM. It also gave an EC50 ([1]; DD2, Dd2: G33A) of 2.53 ± 0.69 nM, an EC50 ([1]; DD2, Dd2: G33V) of 2.08 ± 1.4 nM and an EC50 ([1]; DD2, Dd2: G131S) of 3.38 ± 0.48 nM.

Compound `O=C1C(O)=C([C@H]2CC[C@H](c3ccc(Cl)cc3)CC2)C(=O)c2ccccc21` [Atovaquone, atovaquone] has an EC50 ([1]; DD2, Dd2) of 0.461 ± 0.14 nM, an EC50 ([1]; DD2, Dd2-attB) of 1.11 ± 0.27 nM and an EC50 ([1]; DD2, Dd2-scDHODH) of over 50 nM. It also gave an EC50 ([1]; DD2, Dd2: G33A) of 0.365 ± 0.053 nM, an EC50 ([1]; DD2, Dd2: G33V) of 3.85 ± 7.1 nM and an EC50 ([1]; DD2, Dd2: G131S) of 0.479 ± 0.17 nM. The “interaction in combination with MJM170” value [2] was “Slight synergy; also recorded: modest synergy”, the “interaction in combination with MJM170” value ([2]; listed as atovoquone) was “modestly synergistic” and the “FIC ATV” value ([2]; ratio 2:8) was 0.82 ± 0.05. The “FIC ATV” value ([2]; ratio 4:6) was 0.72 ± 0.1, the “FIC ATV” value ([2]; ratio 6:4) was 0.52 ± 0.1 and the “FIC ATV” value ([2]; ratio 8:2) was 0.35 ± 0.06. For the same compound, the “effect on cyst burden in mice” value (T. gondii cysts) was “partially, and transiently, limits cyst burden in mice”.

`Cc1[nH]c2ccccc2c(=O)c1-c1ccc(Oc2ccc(OC(F)(F)F)cc2)cc1` [ELQ 271] showed a solubility (FaSSIF solubility pH 6.5) of 3.4 µM (≈ 1.4 µg/mL), a CC50 at 72 h [3] of 20000 nM and a mouse microsomal stability [4] of over 200 min. It also gave a half-life ([4]; mouse, mouse microsomes) of over 3.33 h, a half-life ([5]; human, human microsomes) of 2.87 h and a human microsomal stability ([5]; rounded) of 172 min. The solubility kinetic [6] was 0.15 µM (≈ 0.0617 µg/mL), the “effect on brain cyst numbers in mice” value (T. gondii cysts; mouse model, listed as ELQ271) was “partially reduce cyst numbers in mice” and the “effect on brain cyst numbers in mice” value (T. gondii cysts; mouse model; listed as ELQ) 271) was “reduce, but not eliminate, brain cyst numbers in mice”. For the same compound, the “effect on EGS bradyzoites in cysts in vitro” value [7] was “inhibited EGS in vitro”, the “effect on EGS cysts in vitro” value ([7]; 10 μM) was “reduce the EGS cysts in vitro” and the IC50 ([7]; Toxoplasma gondii, EGS strain cysts in HFF) was 1000 nM. The “activity against yeast with a mutation in the Qi site” value [8] was “ineffective”, the IC50 (P. falciparum; C2B strain, multi-drug resistant, pronounced resistance to atovaquone) was 130 nM and the IC50 (P. falciparum; D6 strain (Sierra Leone), drug sensitive) was 30 nM. The IC50 (P. falciparum; TM91C235 strain (Thailand), multi-drug resistant) was 90 nM, the IC50 (P. falciparum; W2 strain (Thailand), chloroquine resistant) was 100 nM and the IC50 [9] was 30 nM. The “growth inhibition of wild type yeast” value [10] was “effective”.

For `CC1(C)N=C(N)N=C(N)N1c1ccc(Cl)cc1` [cycloguanil], the “interaction in combination with MJM170” value [2] was “additive effect”, the “FIC CYG” value ([2]; ratio 2:8) was 0.036 ± 0.01 and the “FIC CYG” value ([2]; ratio 4:6) was 0.089 ± 0.03. For the same compound, the “FIC CYG” value ([2]; ratio 6:4) was 0.2 ± 0.05 and the “FIC CYG” value ([2]; ratio 8:2) was 0.41 ± 0.003.
